Laboratory results taken from US20240400577A1, “MODULATORS OF PROTEIN KINASES” (VIBLIOME THERAPEUTICS, LLC, priority 2021, published 2024).
Values belong to the molecule of their own block, whether it stands above or below them.

Columns and labels:
Assay in all cases: Kinase panel enzymatic inhibition assay (Nanosyn)
Type in all cases: biochemical
ITK = biological target: T1, ITK (Homo sapiens, UniProt Q08881); details: ATP at Km; 30-minute pre-incubation; read-out: kinase inhibition in terms of IC50, ITK
T1 construct: Nanosyn (contract laboratory that ran the panel)
T1 sequence (Q08881 1-620): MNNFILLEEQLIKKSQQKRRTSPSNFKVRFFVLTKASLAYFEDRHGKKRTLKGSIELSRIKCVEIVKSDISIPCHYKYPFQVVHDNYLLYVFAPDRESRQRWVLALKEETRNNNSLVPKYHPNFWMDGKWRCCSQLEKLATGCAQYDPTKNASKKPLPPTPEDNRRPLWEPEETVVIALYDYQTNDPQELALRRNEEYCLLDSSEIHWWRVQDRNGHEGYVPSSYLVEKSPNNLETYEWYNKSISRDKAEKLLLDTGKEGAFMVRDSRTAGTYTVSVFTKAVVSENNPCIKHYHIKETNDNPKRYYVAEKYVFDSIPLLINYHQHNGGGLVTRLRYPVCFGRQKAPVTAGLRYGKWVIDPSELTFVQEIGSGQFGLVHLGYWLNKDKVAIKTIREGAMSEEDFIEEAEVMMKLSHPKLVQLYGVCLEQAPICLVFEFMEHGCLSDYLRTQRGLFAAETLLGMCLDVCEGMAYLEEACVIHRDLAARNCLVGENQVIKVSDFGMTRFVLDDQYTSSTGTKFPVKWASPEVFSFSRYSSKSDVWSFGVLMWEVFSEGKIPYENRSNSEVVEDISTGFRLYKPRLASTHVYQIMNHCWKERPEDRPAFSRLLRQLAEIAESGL
Method: (§1) The disclosed compounds were tested for activity against a panel of at least 300 kinases. Kinase panel screening was conducted by Nanosyn (Santa Clara, CA 95051) using an enzymatic inhibition assay accepted as valid by those skilled in the art (e.g., the Caliper LabChip® mobility shift assay, an ADP detection assay, or time-resolved fluorescence detection technology. Compounds were screened at a concentration of 5 μM using an ATP concentration at the Km for each of the respective kinases and a 30-minute pre-incubation time-point.
(§2) In Table 1 and 2, kinase inhibition is classified by: A=95% or greater, B=90%-94%, C=80%-89%, and D=79% and less with a compound concentration of 5 JIM. In Table 3 and 4, kinase inhibition is reported in terms of IC50 values corresponding to A=less than 500 nm, B=500 nm to less than 1 μM, C=1 μM to less than 10 μM, and D=10 μM or greater using a compound concentration of 5 μM.

PAK1 = biological target: T2, PAK1 (Homo sapiens, UniProt Q13153); details: ATP at Km; 30-minute pre-incubation; read-out: kinase inhibition in terms of IC50, PAK1
T2 construct: Nanosyn (contract laboratory that ran the panel)
Method: as §1, §2

PAK2 = biological target: T3, PAK2 (Homo sapiens, UniProt Q13177); details: ATP at Km; 30-minute pre-incubation; read-out: kinase inhibition in terms of IC50, PAK2
T3 construct: Nanosyn (contract laboratory that ran the panel)
Method: as §1, §2

PAK4 = biological target: T4, PAK4 (Homo sapiens, UniProt O96013); details: ATP at Km; 30-minute pre-incubation; read-out: kinase inhibition in terms of IC50, PAK4
T4 construct: Nanosyn (contract laboratory that ran the panel)
Method: as §1, §2

WEE1 = biological target: T5, WEE1 (Homo sapiens, UniProt P30291); details: ATP at Km; 30-minute pre-incubation; read-out: kinase inhibition in terms of IC50, WEE1
T5 construct: purchased Nanosyn
Method: as §1, §2

JAK3 = biological target: T6, JAK3 (Homo sapiens, UniProt P52333); details: ATP at Km; 30-minute pre-incubation; read-out: kinase inhibition in terms of IC50, JAK3
T6 construct: Nanosyn (contract laboratory that ran the panel)
T6 sequence (P52333 1-1124): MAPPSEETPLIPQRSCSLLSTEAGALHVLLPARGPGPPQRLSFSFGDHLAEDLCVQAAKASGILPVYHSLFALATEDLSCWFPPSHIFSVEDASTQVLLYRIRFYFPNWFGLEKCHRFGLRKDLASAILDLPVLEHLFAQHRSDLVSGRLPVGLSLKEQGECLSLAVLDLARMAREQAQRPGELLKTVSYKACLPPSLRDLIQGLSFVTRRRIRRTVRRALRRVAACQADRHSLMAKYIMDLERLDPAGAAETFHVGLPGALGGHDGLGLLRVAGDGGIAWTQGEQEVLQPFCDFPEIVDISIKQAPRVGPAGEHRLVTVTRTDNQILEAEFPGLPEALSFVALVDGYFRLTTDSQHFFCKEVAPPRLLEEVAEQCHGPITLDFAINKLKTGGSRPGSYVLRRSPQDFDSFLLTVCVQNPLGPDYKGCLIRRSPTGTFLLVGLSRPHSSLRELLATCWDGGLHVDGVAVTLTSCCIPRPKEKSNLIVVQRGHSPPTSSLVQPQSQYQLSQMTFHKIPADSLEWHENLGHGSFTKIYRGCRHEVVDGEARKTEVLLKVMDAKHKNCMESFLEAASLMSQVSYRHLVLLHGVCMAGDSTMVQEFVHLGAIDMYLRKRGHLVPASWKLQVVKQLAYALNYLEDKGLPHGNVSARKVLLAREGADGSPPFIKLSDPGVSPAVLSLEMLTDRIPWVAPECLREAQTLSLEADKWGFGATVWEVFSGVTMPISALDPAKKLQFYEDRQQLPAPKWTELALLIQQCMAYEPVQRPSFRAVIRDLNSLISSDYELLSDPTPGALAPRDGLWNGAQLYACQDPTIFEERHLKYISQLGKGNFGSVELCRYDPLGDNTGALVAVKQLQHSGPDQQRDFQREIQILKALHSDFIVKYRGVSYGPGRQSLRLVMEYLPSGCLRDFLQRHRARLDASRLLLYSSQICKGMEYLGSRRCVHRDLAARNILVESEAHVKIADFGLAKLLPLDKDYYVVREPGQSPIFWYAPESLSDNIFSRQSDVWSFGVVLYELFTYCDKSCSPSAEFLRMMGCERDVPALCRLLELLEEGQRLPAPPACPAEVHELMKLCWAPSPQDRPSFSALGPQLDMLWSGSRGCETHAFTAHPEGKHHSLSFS
Method: as §1, §2

TYK2 = biological target: T7, TYK2 (Homo sapiens, UniProt P29597); details: ATP at Km; 30-minute pre-incubation; read-out: kinase inhibition in terms of IC50, TYK2
T7 construct: purchased Nanosyn
Method: as §1, §2

T2 sequence (Q13153 whole entry): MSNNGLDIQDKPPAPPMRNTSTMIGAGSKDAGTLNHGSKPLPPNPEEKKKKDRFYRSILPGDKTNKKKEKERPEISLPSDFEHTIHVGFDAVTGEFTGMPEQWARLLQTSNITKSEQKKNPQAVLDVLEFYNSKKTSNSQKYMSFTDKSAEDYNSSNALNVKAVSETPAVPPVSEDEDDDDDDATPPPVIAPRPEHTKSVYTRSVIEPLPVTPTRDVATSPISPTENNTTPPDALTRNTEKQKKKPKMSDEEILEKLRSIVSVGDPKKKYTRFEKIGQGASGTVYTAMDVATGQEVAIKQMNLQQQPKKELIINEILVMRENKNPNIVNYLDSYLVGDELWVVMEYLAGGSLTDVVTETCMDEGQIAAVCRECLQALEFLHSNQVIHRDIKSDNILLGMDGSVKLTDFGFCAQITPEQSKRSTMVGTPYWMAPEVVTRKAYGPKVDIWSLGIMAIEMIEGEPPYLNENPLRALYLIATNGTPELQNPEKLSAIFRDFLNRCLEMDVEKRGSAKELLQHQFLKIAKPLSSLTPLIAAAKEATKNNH
T3 sequence (Q13177 whole entry): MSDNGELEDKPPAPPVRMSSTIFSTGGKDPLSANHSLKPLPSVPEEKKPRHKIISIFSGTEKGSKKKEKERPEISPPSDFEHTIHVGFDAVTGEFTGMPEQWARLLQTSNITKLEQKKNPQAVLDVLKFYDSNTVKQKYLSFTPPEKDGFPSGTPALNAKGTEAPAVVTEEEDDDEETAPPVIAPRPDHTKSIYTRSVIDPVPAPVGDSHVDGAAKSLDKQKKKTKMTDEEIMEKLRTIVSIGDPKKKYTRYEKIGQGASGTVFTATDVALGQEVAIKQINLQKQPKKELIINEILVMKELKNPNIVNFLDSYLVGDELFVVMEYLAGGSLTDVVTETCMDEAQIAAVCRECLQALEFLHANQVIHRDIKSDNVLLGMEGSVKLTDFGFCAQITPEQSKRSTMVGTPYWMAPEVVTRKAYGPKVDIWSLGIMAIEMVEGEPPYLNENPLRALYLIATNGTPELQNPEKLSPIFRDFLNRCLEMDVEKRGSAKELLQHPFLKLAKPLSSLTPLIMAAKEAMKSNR
T5 sequence (P30291 whole entry): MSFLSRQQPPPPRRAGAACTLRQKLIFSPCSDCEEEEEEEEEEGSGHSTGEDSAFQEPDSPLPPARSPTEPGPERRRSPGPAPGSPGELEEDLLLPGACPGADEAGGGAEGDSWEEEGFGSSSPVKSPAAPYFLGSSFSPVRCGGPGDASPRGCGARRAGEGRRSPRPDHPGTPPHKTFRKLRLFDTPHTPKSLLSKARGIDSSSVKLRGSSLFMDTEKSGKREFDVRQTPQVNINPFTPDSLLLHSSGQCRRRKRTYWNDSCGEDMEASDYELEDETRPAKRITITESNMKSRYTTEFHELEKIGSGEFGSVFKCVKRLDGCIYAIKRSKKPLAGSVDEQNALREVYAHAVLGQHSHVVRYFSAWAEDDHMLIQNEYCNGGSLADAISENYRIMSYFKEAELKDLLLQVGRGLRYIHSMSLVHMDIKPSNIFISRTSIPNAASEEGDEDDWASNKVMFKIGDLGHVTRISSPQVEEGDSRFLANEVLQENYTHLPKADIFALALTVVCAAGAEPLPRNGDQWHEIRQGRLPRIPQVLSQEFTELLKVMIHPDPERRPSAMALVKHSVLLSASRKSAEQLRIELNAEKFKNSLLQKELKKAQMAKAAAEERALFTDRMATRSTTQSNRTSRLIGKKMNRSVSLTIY
T7 sequence (P29597 whole entry): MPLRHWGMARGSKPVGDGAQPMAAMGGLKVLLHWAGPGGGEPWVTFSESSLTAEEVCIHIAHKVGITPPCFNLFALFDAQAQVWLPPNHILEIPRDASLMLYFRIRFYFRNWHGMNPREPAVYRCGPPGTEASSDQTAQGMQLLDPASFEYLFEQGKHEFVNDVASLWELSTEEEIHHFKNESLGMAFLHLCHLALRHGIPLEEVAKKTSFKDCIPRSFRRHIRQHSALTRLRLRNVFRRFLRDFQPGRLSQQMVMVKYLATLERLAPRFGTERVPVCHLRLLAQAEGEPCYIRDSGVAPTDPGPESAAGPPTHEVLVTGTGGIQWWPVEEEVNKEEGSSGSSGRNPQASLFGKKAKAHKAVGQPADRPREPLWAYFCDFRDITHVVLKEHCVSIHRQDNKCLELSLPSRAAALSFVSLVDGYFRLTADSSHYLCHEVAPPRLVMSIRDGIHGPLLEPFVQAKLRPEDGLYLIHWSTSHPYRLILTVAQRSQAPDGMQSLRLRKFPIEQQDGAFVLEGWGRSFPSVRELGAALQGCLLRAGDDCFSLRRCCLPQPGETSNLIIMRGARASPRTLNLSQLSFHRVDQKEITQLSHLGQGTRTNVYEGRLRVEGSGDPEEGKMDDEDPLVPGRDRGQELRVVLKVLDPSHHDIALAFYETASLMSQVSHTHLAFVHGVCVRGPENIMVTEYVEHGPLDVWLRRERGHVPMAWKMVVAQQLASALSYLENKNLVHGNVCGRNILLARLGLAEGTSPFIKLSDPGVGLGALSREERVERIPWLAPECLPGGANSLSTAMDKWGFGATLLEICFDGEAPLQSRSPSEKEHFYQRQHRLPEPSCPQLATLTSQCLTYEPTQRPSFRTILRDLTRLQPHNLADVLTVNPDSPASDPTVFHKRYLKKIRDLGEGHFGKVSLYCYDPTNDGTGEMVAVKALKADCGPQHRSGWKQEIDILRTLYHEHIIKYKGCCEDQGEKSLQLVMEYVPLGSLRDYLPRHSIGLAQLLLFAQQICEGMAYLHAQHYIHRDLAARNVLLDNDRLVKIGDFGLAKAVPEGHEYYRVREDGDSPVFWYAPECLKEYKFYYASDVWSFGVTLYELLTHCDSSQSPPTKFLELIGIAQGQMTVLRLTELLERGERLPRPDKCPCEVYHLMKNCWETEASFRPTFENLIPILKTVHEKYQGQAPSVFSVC
T4 sequence (O96013 whole entry): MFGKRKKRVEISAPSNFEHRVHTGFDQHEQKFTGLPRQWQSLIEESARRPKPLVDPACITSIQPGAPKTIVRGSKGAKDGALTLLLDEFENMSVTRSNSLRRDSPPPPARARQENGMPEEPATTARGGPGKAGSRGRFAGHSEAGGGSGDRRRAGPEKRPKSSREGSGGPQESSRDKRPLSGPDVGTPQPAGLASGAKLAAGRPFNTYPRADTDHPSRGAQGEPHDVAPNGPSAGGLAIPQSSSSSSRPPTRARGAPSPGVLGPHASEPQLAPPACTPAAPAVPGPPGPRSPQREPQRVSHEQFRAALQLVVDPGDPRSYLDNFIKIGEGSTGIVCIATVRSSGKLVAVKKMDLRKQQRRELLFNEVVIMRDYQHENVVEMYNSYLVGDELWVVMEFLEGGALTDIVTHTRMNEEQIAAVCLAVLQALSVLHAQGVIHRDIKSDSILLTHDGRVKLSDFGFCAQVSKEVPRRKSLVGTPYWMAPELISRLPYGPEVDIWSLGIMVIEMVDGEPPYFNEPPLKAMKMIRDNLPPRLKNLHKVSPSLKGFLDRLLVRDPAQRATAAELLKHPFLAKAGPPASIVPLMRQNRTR

- IC50 (ITK): ≥ 10 µM
SMILES: Cc1ccc(NC(=O)c2ccn(-c3ccc(F)cc3)n2)cc1Nc1nccc(-c2cccnc2)n1 [Ex75, 1-(4-fluorophenyl)-N-(4-methyl-3-((4-(pyridin-3-yl)pyrimidin-2-yl)amino)phenyl)-1H-pyrazole-3-carboxamide]

- IC50 (PAK1): ≥ 10 µM
- IC50 (PAK2): ≥ 10 µM
- IC50 (PAK4): 1 to 10 µM
- IC50 (WEE1): ≥ 10 µM
SMILES: CNc1ncc2cc(-c3cc(NC(=O)c4cc(S(C)(=O)=O)n(-c5ccc(F)cc5)n4)ccc3Cl)c(=O)n(C)c2n1 [Ex76, N-(4-chloro-3-(8-methyl-2-(methylamino)-7-oxo-7,8-dihydropyrido[2,3-d]pyrimidin-6-yl)phenyl)-1-(4-fluorophenyl)-5-(methylsulfonyl)-1H-pyrazole-3-carboxamide]

- IC50 (PAK1): ≥ 10 µM
- IC50 (PAK2): ≥ 10 µM
SMILES: CNc1ncc2cc(-c3cc(NC(=O)c4ccn(-c5ccc(F)cc5)n4)c(F)cc3C)c(C)nc2n1 [Ex85, N-(2-fluoro-4-methyl-5-(7-methyl-2-(methylamino)pyrido[2,3-d]pyrimidin-6-yl)phenyl)-1-(4-fluorophenyl)-1H-pyrazole-3-carboxamide]

- IC50 (JAK3): ≥ 10 µM
- IC50 (TYK2): ≥ 10 µM
SMILES: Cc1cnc2[nH]cc(Cc3ccc(NC(=O)c4cc(S(C)(=O)=O)n(-c5ccc(F)cc5)n4)nc3F)c2c1 [Ex87, N-(6-fluoro-5-((5-methyl-1H-pyrrolo[2,3-b]pyridin-3-yl)methyl)pyridin-2-yl)-1-(4-fluorophenyl)-5-(methylsulfonyl)-1H-pyrazole-3-carboxamide]
